The text below walks through data of ChEMBL document CHEMBL4483862, “Open-source discovery of chemical leads for next-generation chemoprotective antimalarials” (2018).

The assay concerns Plasmodium berghei. Briefly: Luciferase/luciferin-expressing antifolate-resistant parasites were used to infect a culture of HepG2 cells that were pre-incubated with compounds. Infected hepatocytes emit light due to the luciferase reaction. Assay results are presented as the percent inhibition of light emission compared to control. […]. In kind it is functional. The settings on record: sporozoite; for IC90: read-out: LUCIFERASE INFECTION ASSAY - IC90.

Where [1] appears, read: read-out: LUCIFERASE INFECTION ASSAY - IC50.

Structures are written as SMILES. Bounds are passed on as bounds.

Turning to `Cn1c(NCc2ccccc2)nc2cnc(Nc3cccc(Oc4ccccc4)c3)cc21`, the IC90 came to 3.9 µM. Moreover, where the note is “HEPG2TOX_HILL_SLOPE 16.8, HEPG2TOX_R_SQUARED 0.905, PBLUC_HILL_SLOPE 16.2, PBLUC_R_SQUARED 0.526, read-out: LUCIFERASE INFECTION ASSAY - IC50”, the IC50 was 3.4 µM.
Regarding `CCn1nc(C)cc1-c1nnc(Sc2ncc([N+](=O)[O-])s2)n1C`, the IC90 came out at 8.02 µM. Also, the IC50 (FFLUC_HILL_SLOPE 4.24, FFLUC_R_SQUARED 0.134, HEPG2TOX_HILL_SLOPE 11.7, HEPG2TOX_R_SQUARED 0.968, PBLUC_HILL_SLOPE 3.63, PBLUC_R_SQUARED 0.242, read-out: LUCIFERASE INFECTION ASSAY - IC50) came to 4.38 µM.
`Cc1c(Cl)cccc1NC(=O)CNC(=O)CN1CCc2ccccc2C1`: the IC90 was above 10 µM. The half-inhibitory concentration (IC50) under setting [1] is above 10 µM.
On to `Cc1nnnn1/C(=C\c1ccccc1)C(=O)OCCOc1ccccc1Cl`, for which the IC90 is above 10 µM. In addition, the IC50 under setting [1] is above 10 µM.
`Cc1ccc2nc(NC(=O)c3ccc(OCc4nccn4C)cc3)sc2c1`: the IC90 is above 10 µM. Under setting [1], the IC50 is above 10 µM.
As for `O=C(C1CCCO1)N1CCn2c1nc1ccccc12` (centres undefined), the IC90 was above 10 µM. The IC50 under setting [1] is above 10 µM.
As to `Cc1cccc(C(=O)Nc2nc3ccccn3c2C(=O)NC2CCCC2)c1`, the IC90 turned out to be 4.69 µM. Further, where the note is “HEPG2TOX_HILL_SLOPE 8.83, HEPG2TOX_R_SQUARED 0.45, PBLUC_HILL_SLOPE 2.41, PBLUC_R_SQUARED 0.415, read-out: LUCIFERASE INFECTION ASSAY - IC50”, the IC50 amounted to 1.88 µM.
In the case of `CCCc1ccc(-c2nc(NC(=O)CCc3ccsc3)sc2C)cc1`, the IC90 was above 10 µM. Besides, the IC50 under setting [1] is above 10 µM.
In the case of `N#C/C(=C\c1cn(Cc2ccccc2)nc1-c1cccnc1)c1ccc([N+](=O)[O-])cc1`, the IC90 was found to be 1.62 µM. In addition, the IC50 under setting [1] was determined as 0.786 µM.
For `O=C(CNc1cc(C(F)(F)F)cc(C(F)(F)F)c1)NC(=O)NC1CCCC1`, the IC90 is above 10 µM. In addition, the IC50 under setting [1] was determined as 5.94 µM.
`Oc1ccc(Br)cc1/C=N/c1cc(C(F)(F)F)ccc1NCCc1ccccc1`: the IC90 was above 7.12 µM. Under “PBLUC_HILL_SLOPE 12.2, PBLUC_R_SQUARED 0.511, read-out: LUCIFERASE INFECTION ASSAY - IC50”, the IC50 is above 7.12 µM.
Take `CN(C)CCNC(=O)c1cccc(-c2cnc3ccc(-c4cccs4)nn23)c1`: the IC90 came out at 3.6 µM.
As for `COc1ccc(-c2nonc2NC(=O)c2oc3cc(C)ccc3c2C)cc1OC`, the IC90 worked out at 3.11 µM. Further, the IC50 (HEPG2TOX_HILL_SLOPE 1.8, HEPG2TOX_R_SQUARED 0.881, PBLUC_HILL_SLOPE 18.6, PBLUC_R_SQUARED 0.206, read-out: LUCIFERASE INFECTION ASSAY - IC50) stood at 2.77 µM.
On to `CCN1CCN(c2ccc(S(=O)(=O)N3CCCCC3)cc2NC(=O)COc2ccc(Cl)c(C)c2)CC1`, for which the IC90 was above 10 µM. In addition, under setting [1], the IC50 amounted to 9.01 µM.
For `CNC(=O)c1ccc(CN(C(=O)/C=C/c2ccc(-c3ccccc3F)s2)C2CC2)cc1`, the IC90 was found to be 6.45 µM. The IC50 (PBLUC_HILL_SLOPE 95.6, PBLUC_R_SQUARED 0.262, read-out: LUCIFERASE INFECTION ASSAY - IC50) turned out to be 6.3 µM.
`Cn1nc(-c2ccc(/C=N/NC(=O)c3ccc(Cl)cc3Cl)s2)cc1C(F)(F)F`: the IC90 is above 7.38 µM. For the same compound, the IC50 under setting [1] is above 7.38 µM.
On to `COCC(C)Nc1ncnc2scc(-c3ccc(OC)cc3)c12` (centres undefined), for which the IC90 stood at 4.03 µM. Further, the IC50 (HEPG2TOX_HILL_SLOPE 7.42, HEPG2TOX_R_SQUARED 0.779, PBLUC_HILL_SLOPE 12.3, PBLUC_R_SQUARED 0.781, read-out: LUCIFERASE INFECTION ASSAY - IC50) was 3.37 µM.
With `COc1ccc(C(N)c2csc(NC(=O)Nc3ccccc3C(C)C)n2)cc1` (centres undefined), the IC90 was 3.02 µM. The IC50 (PBLUC_HILL_SLOPE 13.4, PBLUC_R_SQUARED 0.332, read-out: LUCIFERASE INFECTION ASSAY - IC50) was 2.57 µM.
On to `Nc1cc(C(F)(F)F)ccc1Sc1ccccn1`, for which the IC90 is above 12.2 µM. Besides, where the note is “PBLUC_HILL_SLOPE 27.6, PBLUC_R_SQUARED 0.179, read-out: LUCIFERASE INFECTION ASSAY - IC50”, the IC50 is 11.8 µM.
In the case of `C=CCNC(=S)N/N=C/C1=C(N2CCOCC2)C(=C/c2ccc(Cl)cc2Cl)/CC1`, the IC90 is above 10 µM. Also, the IC50 under setting [1] is above 10 µM.
Consider `CCOc1cccc(C2Nc3ccccc3C(=O)N2C2CC2)c1O` (centres undefined), for which the IC90 was 9.55 µM. For the same compound, the IC50 (HEPG2TOX_HILL_SLOPE 0.644, HEPG2TOX_R_SQUARED 0.857, PBLUC_HILL_SLOPE 2.2, PBLUC_R_SQUARED 0.323, read-out: LUCIFERASE INFECTION ASSAY - IC50) is 3.51 µM.
Consider `COc1ccc(NS(=O)(=O)c2c(C)c(C)c(C)c(C)c2C)cc1O`, for which the IC90 came to 3.8 µM. For the same compound, the IC50 (FFLUC_HILL_SLOPE 1.05, FFLUC_R_SQUARED 0.782, HEPG2TOX_HILL_SLOPE 1.26, HEPG2TOX_R_SQUARED 0.985, PBLUC_HILL_SLOPE 23, PBLUC_R_SQUARED 0.188, read-out: LUCIFERASE INFECTION ASSAY - IC50) was found to be 3.45 µM.
With `O=C(Nc1nonc1-c1cccs1)c1cccc(Cl)c1`, the IC90 is above 10.8 µM. The IC50 (HEPG2TOX_HILL_SLOPE 10.4, HEPG2TOX_R_SQUARED 0.681, PBLUC_HILL_SLOPE 17.7, PBLUC_R_SQUARED 0.0482, read-out: LUCIFERASE INFECTION ASSAY - IC50) amounted to 9.87 µM.
Turning to `COC(=O)c1cc(Br)ccc1NC(=O)CCNC(=O)c1cccc(C)c1`, the IC90 is above 10 µM. The IC50 under setting [1] is above 10 µM.
As for `Cc1ccc(Cl)cc1NC(=O)C[n+]1ccc(Cc2ccc([N+](=O)[O-])cc2)cc1`, the IC90 is above 10 µM. Further, the IC50 (HEPG2TOX_HILL_SLOPE 5.4, HEPG2TOX_R_SQUARED 0.89, PBLUC_HILL_SLOPE 4.32, PBLUC_R_SQUARED 0.492, read-out: LUCIFERASE INFECTION ASSAY - IC50) came out at 6.22 µM.
Turning to `Cc1ccc(S(=O)(=O)Nc2ccc(C(=O)Nc3ncccc3O)cc2)cc1C`, the IC90 was above 10 µM. In addition, the IC50 under setting [1] is 7.38 µM.
`CCOC(=O)c1c(NC(=O)Cn2ncc(Cl)c(Cl)c2=O)sc2c1CCC(C)C2` (centres undefined): the IC90 was above 10 µM. The IC50 under setting [1] is above 10 µM.
For the compound `CCN(CCNc1ncnc2sc3c(c12)CCC3)c1cccc(C)c1`, the IC90 amounted to 1.44 µM. The IC50 (HEPG2TOX_HILL_SLOPE 1.22, HEPG2TOX_R_SQUARED 0.961, PBLUC_HILL_SLOPE 11.3, PBLUC_R_SQUARED 0.508, read-out: LUCIFERASE INFECTION ASSAY - IC50) was found to be 1.18 µM.
Turning to `CNc1nc2cnc(Nc3cccc(C(F)(F)F)c3)cc2n1Cc1ccco1`, the IC90 is above 10 µM. Further, under “HEPG2TOX_HILL_SLOPE 2.71, HEPG2TOX_R_SQUARED 0.929, read-out: LUCIFERASE INFECTION ASSAY - IC50”, the 50% inhibitory concentration (IC50) was above 10 µM.
As to `N#C/C(=N\Nc1ccc(F)cc1)C(=O)c1ccc(Cl)cc1`, the IC90 is above 10.9 µM. Moreover, the IC50 under setting [1] was 9.59 µM.
`COc1cc(Nc2ccn3ncc(-c4ccc(N)cc4)c3n2)cc(OC)c1OC`: the IC90 was 3.83 µM. Besides, the IC50 (HEPG2TOX_HILL_SLOPE 3.9, HEPG2TOX_R_SQUARED 0.655, PBLUC_HILL_SLOPE 12, PBLUC_R_SQUARED 0.445, read-out: LUCIFERASE INFECTION ASSAY - IC50) worked out at 3.19 µM.
For `Cc1nn(Cc2ccccc2Cl)c(Cl)c1C(=O)OC(C(=O)c1c[nH]c2ccccc12)c1ccccc1` (centres undefined), the IC90 is above 10 µM. Also, the IC50 (PBLUC_HILL_SLOPE 3.17, PBLUC_R_SQUARED 0.115, read-out: LUCIFERASE INFECTION ASSAY - IC50) was 6.36 µM.
`O=C(NC1CC1)c1ccc(-c2cn3c(-c4ccc(O)cc4)cnc3cn2)cc1`: the IC90 is above 8.91 µM. Moreover, under “HEPG2TOX_HILL_SLOPE 9.19, HEPG2TOX_R_SQUARED 0.833, PBLUC_HILL_SLOPE 2.2, PBLUC_R_SQUARED 0.157, read-out: LUCIFERASE INFECTION ASSAY - IC50”, the IC50 is 7.74 µM.
With `O=C(CCCc1cccs1)Nc1nnc[nH]1`, the IC90 is above 10 µM. For the same compound, the IC50 (PBLUC_HILL_SLOPE 0.436, PBLUC_R_SQUARED 0.0408, read-out: LUCIFERASE INFECTION ASSAY - IC50) was above 10 µM.
On to `O=C(C1CC(=O)N(c2ccccc2F)C1)N1CCN(c2ccc(C(F)(F)F)cn2)CC1` (centres undefined), for which the IC90 was above 10 µM. Also, the IC50 under setting [1] is above 10 µM.
Consider `Cc1cccc(N2CCN(CC(=O)c3ccc[nH]3)CC2)c1C`, for which the IC90 was above 10 µM. The IC50 under setting [1] was above 10 µM.
Consider `O=C(c1cc2ccccc2cc1O)N1CCN(Cc2ccc3c(c2)OCO3)CC1`, for which the IC90 was 8.06 µM. Further, the IC50 (HEPG2TOX_HILL_SLOPE 11.9, HEPG2TOX_R_SQUARED 0.324, PBLUC_HILL_SLOPE 2.98, 3.06, PBLUC_R_SQUARED 0.831, 0.940, read-out: LUCIFERASE INFECTION ASSAY - IC50) was 4.38 µM.
As to `CC(Nc1ccc2c(c1)OC(F)(F)O2)C(=O)Nc1ccc(Cl)cn1` (centres undefined), the IC90 was above 10 µM. Moreover, the IC50 under setting [1] is above 10 µM.
As to `CN(C)c1cccc(-c2cnc3cnc(-c4cccc(C(=O)NCCO)c4)cn23)c1`, the IC90 was above 8.22 µM. Also, where the note is “PBLUC_HILL_SLOPE 1.98, PBLUC_R_SQUARED 0.622, read-out: LUCIFERASE INFECTION ASSAY - IC50”, the 50% inhibitory concentration (IC50) is 5.11 µM.
Consider `Cc1cc(=O)nc(N/N=C/c2c(C)nn(-c3ccccc3)c2Oc2ccc(F)cc2)[nH]1`, for which the IC90 was above 10 µM. Also, the IC50 (PBLUC_HILL_SLOPE 3.64, PBLUC_R_SQUARED 0.538, read-out: LUCIFERASE INFECTION ASSAY - IC50) worked out at 6.15 µM.
